Source: PubChem BioAssay (NCI)
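A five-concentration, 48-hour dose response in 96-well plates underlies each endpoint, interpolated linearly between surrounding concentrations. Definition used: TGI = concentration required for complete inhibition of growth.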

Tests used:
Assay in all cases: NCI-60 cell line screen, 48 h
[1] = test system: A498 renal
[2] = test system: NCI-H23 lung
[3] = test system: SNB-19 CNS
[4] = test system: EKVX NSCLC
[5] = test system: UACC-257 melanoma
[6] = test system: HOP-92 NSCLC
[7] = test system: SK-MEL-5 melanoma
[8] = test system: 786-0 renal
[9] = test system: OVCAR-4 ovarian
[10] = test system: NCI-H460 lung
[11] = test system: SF-539 CNS
[12] = test system: HS 578T breast
[13] = test system: KM12 colon
[14] = test system: LOX IMVI melanoma
[15] = test system: SF-268 CNS
[16] = test system: OVCAR-5 ovarian
[17] = test system: HCC-2998 colon
[18] = test system: SNB-75 CNS
[19] = test system: SW-620 colon
[20] = test system: MALME-3M melanoma
[21] = test system: T-47D breast
[22] = test system: M14 melanoma
[23] = test system: OVCAR-3 ovarian
[24] = test system: CAKI-1 renal
[25] = test system: UO-31 renal
[26] = test system: A549 NSCLC
[27] = test system: K-562 leukemia
[28] = test system: CCRF-CEM leukemia
[29] = test system: HCT-15 colon
[30] = test system: MCF7 breast
[31] = test system: IGROV1 ovarian
[32] = test system: SK-MEL-28 melanoma
[33] = test system: RXF 393 renal
[34] = test system: PC-3 prostate
[35] = test system: MDA-N
[36] = test system: SN12C renal
[37] = test system: NCI-H226 lung
[38] = test system: MOLT-4 leukemia
[39] = test system: HL-60(TB) leukemia
[40] = test system: ACHN renal
[41] = test system: SF-295 CNS
[42] = test system: U251 CNS
[43] = test system: HCT-116 colon
[44] = test system: HOP-62 NSCLC
[45] = test system: DU-145 prostate
[46] = test system: MDA-MB-231 breast
[47] = test system: NCI-H522 lung
[48] = test system: HT29 colon
[49] = test system: TK-10 renal
[50] = test system: SR leukemia
[51] = test system: OVCAR-8 ovarian
[52] = test system: BT-549 breast
[53] = test system: UACC-62 melanoma
[54] = test system: SK-OV-3 ovarian
[55] = test system: SK-MEL-2 melanoma
[56] = test system: MDA-MB-435
[57] = test system: RPMI-8226 leukemia
[58] = test system: NCI/ADR-RES ovarian
[59] = test system: COLO 205 colon

SMILES: CC(=O)Oc1ccc2cc(Oc3cc(Cl)c(Cl)cc3Cl)c(=O)oc2c1
- TGI [1]: 46.7 µM
- TGI [2]: 88.5 µM
- TGI [3]: 81.2 µM
- TGI [4]: 71.9 µM
- TGI [5]: 50.6 µM
- TGI [6]: 48 µM
- TGI [7]: 24.1 µM
- TGI [8]: 29 µM
- TGI [9]: > 100 µM
- TGI [10]: 37.8 µM
- TGI [11]: 31.2 µM
- TGI [12]: 65 µM
- TGI [13]: 25.6 µM
- TGI [14]: 28.9 µM
- TGI [15]: > 100 µM
- TGI [16]: 71.2 µM
- TGI [17]: 30.8 µM
- TGI [18]: 44.6 µM
- TGI [19]: 28 µM
- TGI [20]: 31.3 µM
- TGI [21]: > 100 µM
- TGI [22]: 35.2 µM
- TGI [23]: 31.6 µM
- TGI [24]: 33.6 µM
- TGI [25]: 25.9 µM
- TGI [26]: 40.2 µM
- TGI [27]: 25.9 µM
- TGI [28]: 37.9 µM
- TGI [29]: 26.3 µM
- TGI [30]: 67.7 µM
- TGI [31]: 32.1 µM
- TGI [32]: 59.6 µM
- TGI [33]: 31.5 µM
- TGI [34]: 33 µM
- TGI [35]: 30.6 µM
- TGI [36]: 28.1 µM
- TGI [37]: 36.7 µM
- TGI [38]: 30.4 µM
- TGI [39]: 68.8 µM
- TGI [40]: 50.5 µM
- TGI [41]: 45.7 µM
- TGI [42]: 32.5 µM
- TGI [43]: 28.1 µM
- TGI [44]: 36.2 µM
- TGI [45]: > 100 µM
- TGI [46]: 33.7 µM
- TGI [47]: 34.6 µM
- TGI [48]: 30.5 µM
- TGI [49]: 74.5 µM
- TGI [50]: 67.6 µM
- TGI [51]: 34.7 µM
- TGI [52]: 26.7 µM

SMILES: Clc1cc(N/N=C(\c2ccccc2)c2ccccn2)ncn1
- TGI [53]: 2.7 µM
- TGI [2]: > 100 µM
- TGI [3]: > 100 µM
- TGI [4]: > 100 µM
- TGI [5]: 4.65 µM
- TGI [6]: > 100 µM
- TGI [7]: 4.2 µM
- TGI [9]: > 100 µM
- TGI [10]: 83.1 µM
- TGI [11]: 3.26 µM
- TGI [12]: > 100 µM
- TGI [13]: > 100 µM
- TGI [54]: 2 µM
- TGI [14]: 1.74 µM
- TGI [15]: > 100 µM
- TGI [16]: > 100 µM
- TGI [17]: > 100 µM
- TGI [18]: > 100 µM
- TGI [19]: > 100 µM
- TGI [20]: 3.35 µM
- TGI [55]: > 100 µM
- TGI [21]: 45.2 µM
- TGI [22]: > 100 µM
- TGI [23]: > 100 µM
- TGI [24]: 0.235 µM
- TGI [26]: > 100 µM
- TGI [27]: > 100 µM
- TGI [28]: 1.3 µM
- TGI [31]: 89.9 µM
- TGI [32]: > 100 µM
- TGI [33]: > 100 µM
- TGI [34]: > 100 µM
- TGI [35]: > 100 µM
- TGI [37]: 67.3 µM
- TGI [38]: 3.48 µM
- TGI [40]: > 100 µM
- TGI [41]: > 100 µM
- TGI [42]: > 100 µM
- TGI [43]: > 100 µM
- TGI [56]: > 100 µM
- TGI [44]: 0.665 µM
- TGI [45]: > 100 µM
- TGI [46]: 0.0669 µM
- TGI [57]: 1.92 µM
- TGI [48]: > 100 µM
- TGI [49]: > 100 µM
- TGI [50]: 3.08 µM
- TGI [52]: > 100 µM

SMILES: CCOC(=O)C(O)(CC1=NC(C(=O)OC)(C(=O)OC)C(c2cccc(C=O)c2)O1)C(=O)OCC (centres undefined)
- TGI [1]: > 100 µM
- TGI [53]: > 100 µM
- TGI [2]: > 100 µM
- TGI [3]: > 100 µM
- TGI [4]: > 100 µM
- TGI [5]: > 100 µM
- TGI [6]: > 100 µM
- TGI [7]: > 100 µM
- TGI [8]: > 100 µM
- TGI [9]: > 100 µM
- TGI [10]: > 100 µM
- TGI [13]: > 100 µM
- TGI [54]: > 100 µM
- TGI [14]: > 100 µM
- TGI [16]: > 100 µM
- TGI [17]: > 100 µM
- TGI [18]: > 100 µM
- TGI [19]: > 100 µM
- TGI [55]: > 100 µM
- TGI [21]: > 100 µM
- TGI [22]: > 100 µM
- TGI [23]: > 100 µM
- TGI [24]: > 100 µM
- TGI [25]: > 100 µM
- TGI [26]: > 100 µM
- TGI [58]: > 100 µM
- TGI [27]: > 100 µM
- TGI [28]: > 100 µM
- TGI [29]: > 100 µM
- TGI [30]: > 100 µM
- TGI [31]: > 100 µM
- TGI [32]: > 100 µM
- TGI [33]: > 100 µM
- TGI [34]: > 100 µM
- TGI [35]: > 100 µM
- TGI [36]: > 100 µM
- TGI [37]: > 100 µM
- TGI [38]: > 100 µM
- TGI [39]: > 100 µM
- TGI [40]: > 100 µM
- TGI [59]: > 100 µM
- TGI [42]: > 100 µM
- TGI [43]: > 100 µM
- TGI [56]: > 100 µM
- TGI [44]: > 100 µM
- TGI [45]: > 100 µM
- TGI [57]: > 100 µM
- TGI [48]: > 100 µM
- TGI [49]: > 100 µM
- TGI [50]: > 100 µM
- TGI [51]: > 100 µM
- TGI [52]: > 100 µM

SMILES: CCOC(=O)c1ccc(N(CCOS(C)(=O)=O)CCOS(C)(=O)=O)cc1
- TGI [1]: > 100 µM
- TGI [53]: 77.6 µM
- TGI [2]: > 100 µM
- TGI [3]: > 100 µM
- TGI [4]: > 100 µM
- TGI [5]: > 100 µM
- TGI [6]: > 100 µM
- TGI [7]: > 100 µM
- TGI [9]: > 100 µM
- TGI [10]: > 100 µM
- TGI [11]: 62.1 µM
- TGI [12]: > 100 µM
- TGI [13]: > 100 µM
- TGI [14]: > 100 µM
- TGI [15]: > 100 µM
- TGI [16]: > 100 µM
- TGI [17]: > 100 µM
- TGI [19]: > 100 µM
- TGI [20]: > 100 µM
- TGI [55]: > 100 µM
- TGI [21]: > 100 µM
- TGI [22]: > 100 µM
- TGI [23]: > 100 µM
- TGI [24]: 29.1 µM
- TGI [25]: 39.3 µM
- TGI [26]: > 100 µM
- TGI [58]: > 100 µM
- TGI [27]: > 100 µM
- TGI [28]: 77.6 µM
- TGI [29]: > 100 µM
- TGI [30]: > 100 µM
- TGI [31]: > 100 µM
- TGI [32]: > 100 µM
- TGI [33]: 38.5 µM
- TGI [34]: > 100 µM
- TGI [35]: > 100 µM
- TGI [38]: 48.1 µM
- TGI [39]: > 100 µM
- TGI [40]: 63.7 µM
- TGI [41]: > 100 µM
- TGI [59]: > 100 µM
- TGI [42]: > 100 µM
- TGI [43]: > 100 µM
- TGI [56]: > 100 µM
- TGI [45]: 47 µM
- TGI [46]: > 100 µM
- TGI [47]: 41.1 µM
- TGI [57]: > 100 µM
- TGI [48]: > 100 µM
- TGI [49]: > 100 µM
- TGI [51]: > 100 µM
- TGI [52]: > 100 µM
